Data from paper PMC3481155, “AhR activation underlies the CYP1A autoinduction by A-998679 in rats” (Frontiers in Genetics, 2012).

Assays:
rat Cyp 3A1 = molecular target: T1, rat Cyp 3A1 (Rattus norvegicus, UniProt P04800); assay: Recombinant rat Cyp phenotype profiling, 3A1; assay type: in vitro ADME; details: 60 min
T1 construct: purchased BD Gentest; host or cells: baculovirus infected insect cells
Protocol: (§1) Identification of the drug metabolizing enzymes (DMEs) of A-998679 was studied in cDNA expressed recombinant enzymes prepared from baculovirus infected insect cells over-expressing rat Cyp isoforms (BD Gentest, Woburn, MA) as listed in Table 2. Incubations were conducted in duplicate using Supersomes. The incubation mixture contained 100 pmol/ml of enzymes, except for Cyp1a1 (200 pmol/ml), 0.1 or 0.21 μM of [^3H]A-998679 in 100 mM phosphate buffer (pH 7.4). Reactions were initiated with the addition of NADPH at a final concentration of 1 mM and incubated at 37°C for 60 min. At the end of the incubation period, the incubations were terminated by the addition of acetonitrile/ethanol (50/50, v/v) solution. Insect control samples lacking expressed enzyme were used as negative control. The degree of metabolism of A-998679 was assessed by percent of parent remaining using the radio-HPLC method described below.
(§2) Radiolabeled components from the above assays were profiled following separation by HPLC with on line radioflow detector. The system consisted of an Agilent 1100 Series quaternary pump and autosampler connected to a Packard 500TR flow scintillation detector. The data were processed using the Radiomatic™ Flo-one® software v3.65. The scintillant (Perkin Elmer FLO-SCINT™ III) flow was maintained at 3 ml/min. […]

AhR gene battery = assay: Rat liver mRNA profiling of the AhR gene battery; assay type: in vivo; details: 5 days
Protocol: All animal experiments were conducted in accordance with the Guiding Principles in the Use of Animals in Toxicology (http://www.toxicology.org/ai/air/air6.asp) and were approved by Abbott's Institutional Animal Care and Use Committee (IACUC). Male Sprague-Dawley rats [Crl:CD®(SD)IGS BR], weighing ~250 g at study initiation were obtained from Charles River Laboratories, Inc. (Wilmington, MA). Rats were housed singly in ventilated, stainless steel, wire-bottom hanging cages and fed non-certified Rodent Chow (Harlan Labs, Madison, WI), and water ad libitum and acclimated for at least 5 days after arrival. […] Serum clinical chemistry parameters were quantified using an Aeroset Clinical Chemistry Analyzer (Abbott Laboratories, Abbott Park, IL) and included alanine amino transferase (ALT), aspartate amino transferase (AST), gamma glutamyltransferase (GGT), and alkaline phosphatase (ALP) activities.
Frozen liver or jejunum were immediately added to 4 ml of TRIzol reagent (Invitrogen Life Technologies) and homogenized using a Polytron 300D homogenizer (Brinkman Instruments, Westbury, NY). […] Nucleic acid concentration was determined by OD 260 nm (Smart-Spec, Bio-Rad Laboratories, Hercules, CA), and RNA integrity was evaluated using an Agilent 2100 bioanalyzer (Agilent Technologies, Foster City, CA). […]

rat Cyp 2A2 = molecular target: T2, rat Cyp 2A2 (Rattus norvegicus, UniProt P15149); assay: Recombinant rat Cyp phenotype profiling, 2A2; assay type: in vitro ADME; details: 60 min
T2 construct: purchased BD Gentest; host or cells: baculovirus infected insect cells
T2 sequence (P15149 whole entry): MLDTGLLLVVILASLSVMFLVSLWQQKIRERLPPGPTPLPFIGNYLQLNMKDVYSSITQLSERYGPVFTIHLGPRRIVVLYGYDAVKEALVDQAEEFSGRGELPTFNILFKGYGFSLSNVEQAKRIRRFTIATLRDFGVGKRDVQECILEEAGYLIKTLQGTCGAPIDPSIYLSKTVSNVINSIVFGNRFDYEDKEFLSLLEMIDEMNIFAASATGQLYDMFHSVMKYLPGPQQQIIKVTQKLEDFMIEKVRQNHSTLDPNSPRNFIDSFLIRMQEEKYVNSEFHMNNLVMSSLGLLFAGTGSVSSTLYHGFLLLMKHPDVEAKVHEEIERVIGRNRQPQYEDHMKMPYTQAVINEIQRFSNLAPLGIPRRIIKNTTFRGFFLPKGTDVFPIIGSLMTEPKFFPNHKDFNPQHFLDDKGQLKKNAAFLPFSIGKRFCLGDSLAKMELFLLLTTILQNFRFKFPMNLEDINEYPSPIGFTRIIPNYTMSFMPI
Protocol: as §1, §2

rat Cyp 2C6 = molecular target: T3, rat Cyp 2C6 (Rattus norvegicus, UniProt P05178); assay: Recombinant rat Cyp phenotype profiling, 2C6; assay type: in vitro ADME; details: 60 min
T3 construct: purchased BD Gentest; host or cells: baculovirus infected insect cells
T3 sequence (P05178 whole entry): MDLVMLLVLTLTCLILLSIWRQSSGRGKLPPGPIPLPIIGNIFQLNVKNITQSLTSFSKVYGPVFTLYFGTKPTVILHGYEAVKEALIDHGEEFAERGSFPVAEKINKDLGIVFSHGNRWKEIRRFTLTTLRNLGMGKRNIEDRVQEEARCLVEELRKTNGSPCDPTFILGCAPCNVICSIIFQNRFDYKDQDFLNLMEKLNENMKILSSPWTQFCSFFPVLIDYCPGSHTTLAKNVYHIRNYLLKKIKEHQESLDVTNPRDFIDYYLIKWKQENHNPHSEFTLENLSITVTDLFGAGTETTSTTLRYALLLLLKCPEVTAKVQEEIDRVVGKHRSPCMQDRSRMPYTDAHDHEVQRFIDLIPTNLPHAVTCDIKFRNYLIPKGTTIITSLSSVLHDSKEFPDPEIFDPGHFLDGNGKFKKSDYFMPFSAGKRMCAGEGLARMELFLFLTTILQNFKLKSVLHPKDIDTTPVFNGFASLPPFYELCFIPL
Protocol: as §1, §2

T1 sequence (P04800 whole entry): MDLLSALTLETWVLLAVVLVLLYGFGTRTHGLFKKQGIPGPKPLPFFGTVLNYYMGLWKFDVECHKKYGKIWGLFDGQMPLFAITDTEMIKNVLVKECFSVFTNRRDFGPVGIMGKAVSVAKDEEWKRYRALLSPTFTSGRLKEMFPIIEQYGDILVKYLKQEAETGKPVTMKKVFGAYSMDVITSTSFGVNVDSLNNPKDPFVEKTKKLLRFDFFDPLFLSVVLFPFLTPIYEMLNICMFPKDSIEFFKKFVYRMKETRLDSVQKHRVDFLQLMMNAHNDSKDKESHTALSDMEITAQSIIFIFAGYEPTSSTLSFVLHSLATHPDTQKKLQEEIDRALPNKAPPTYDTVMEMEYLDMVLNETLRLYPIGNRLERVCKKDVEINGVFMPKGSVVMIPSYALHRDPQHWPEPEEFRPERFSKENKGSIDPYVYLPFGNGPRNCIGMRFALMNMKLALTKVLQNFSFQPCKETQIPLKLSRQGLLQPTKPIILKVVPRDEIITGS

% parent remaining (rat Cyp 3A1; recombinant rat Cyp 3A1, 0.10 μM): 93.9% | % parent remaining (rat Cyp 3A1; recombinant rat Cyp 3A1, 0.21 μM): 90.3% | % parent remaining (rat Cyp 2A2; recombinant rat Cyp 2A2, 0.10 μM): 90.2% | % parent remaining (rat Cyp 2A2; recombinant rat Cyp 2A2, 0.21 μM): 77.8% | % parent remaining (rat Cyp 2C6; recombinant rat Cyp 2C6, 0.10 μM): 91.0% | % parent remaining (rat Cyp 2C6; recombinant rat Cyp 2C6, 0.21 μM): 88.8%
SMILES: N#Cc1cccc(-c2noc(-c3cccnc3)n2)c1 [A-998679, 3-(5-pyridin-3-yl-1,2,4-oxadiazol-3-yl) benzonitrile]
expression of members of the AhR gene battery (Gst isoforms, Nqo1, Aldh, AhR) in rat liver (AhR gene battery): upregulated
